Several values for one entry are separate records, joined by “and”; a condition that tells them apart may be missing. Equal values may be shown once.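 Values below derive from 48-hour exposures of cells grown in 96-well plates, with endpoints linearly interpolated between the two concentrations bracketing the appropriate inhibition level. The concentration for 50% growth inhibition is given as GI50. The concentration for full growth arrest is given as TGI.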 Activity calls are given as the source filed them. Rule as the data show it: active = GI50 below about 0.43 µM; inactive = the rest.
Experiments:
Assay in all cases: NCI-60 cell line screen, 48 h
SK-MEL-2 melanoma = test system: SK-MEL-2 melanoma
TK-10 renal = test system: TK-10 renal
COLO 205 colon = test system: COLO 205 colon
IGROV1 ovarian = test system: IGROV1 ovarian
HOP-62 NSCLC = test system: HOP-62 NSCLC
SK-OV-3 ovarian = test system: SK-OV-3 ovarian
EKVX NSCLC = test system: EKVX NSCLC
DMS 114 small cell lung = test system: DMS 114 small cell lung
OVCAR-8 ovarian = test system: OVCAR-8 ovarian
LOX IMVI melanoma = test system: LOX IMVI melanoma
SNB-75 CNS = test system: SNB-75 CNS
786-0 renal = test system: 786-0 renal
MALME-3M melanoma = test system: MALME-3M melanoma
MOLT-4 leukemia = test system: MOLT-4 leukemia
HOP-92 NSCLC = test system: HOP-92 NSCLC
SF-539 CNS = test system: SF-539 CNS
SNB-19 CNS = test system: SNB-19 CNS
U251 CNS = test system: U251 CNS
A549 NSCLC = test system: A549 NSCLC
ACHN renal = test system: ACHN renal
SW-620 colon = test system: SW-620 colon
DLD-1 colon = test system: DLD-1 colon
NCI-H23 lung = test system: NCI-H23 lung
HT29 colon = test system: HT29 colon
DMS 273 small cell lung = test system: DMS 273 small cell lung
RXF 393 renal = test system: RXF 393 renal
SF-295 CNS = test system: SF-295 CNS
NCI-H522 lung = test system: NCI-H522 lung
M14 melanoma = test system: M14 melanoma
HOP-18 NSCLC = test system: HOP-18 NSCLC
SNB-78 CNS = test system: SNB-78 CNS
M19-MEL melanoma = test system: M19-MEL melanoma
NCI-H460 lung = test system: NCI-H460 lung
UACC-257 melanoma = test system: UACC-257 melanoma
SR leukemia = test system: SR leukemia
SK-MEL-5 melanoma = test system: SK-MEL-5 melanoma
HL-60(TB) leukemia = test system: HL-60(TB) leukemia
NCI-H226 lung = test system: NCI-H226 lung
SK-MEL-28 melanoma = test system: SK-MEL-28 melanoma
OVCAR-4 ovarian = test system: OVCAR-4 ovarian
KM20L2 colon = test system: KM20L2 colon
CAKI-1 renal = test system: CAKI-1 renal
XF 498 CNS = test system: XF 498 CNS
OVCAR-5 ovarian = test system: OVCAR-5 ovarian
HCC-2998 colon = test system: HCC-2998 colon
A498 renal = test system: A498 renal
K-562 leukemia = test system: K-562 leukemia
UACC-62 melanoma = test system: UACC-62 melanoma
RPMI-8226 leukemia = test system: RPMI-8226 leukemia
SN12C renal = test system: SN12C renal
SF-268 CNS = test system: SF-268 CNS
HCT-15 colon = test system: HCT-15 colon
KM12 colon = test system: KM12 colon
UO-31 renal = test system: UO-31 renal
CCRF-CEM leukemia = test system: CCRF-CEM leukemia
HCT-116 colon = test system: HCT-116 colon
OVCAR-3 ovarian = test system: OVCAR-3 ovarian

`N/C(=N\N=C/c1c2ccccc2c(Cl)c2ccccc12)NO` was tested, and the GI50 (SK-MEL-2 melanoma) was 3.61 µM, the TGI (SK-MEL-2 melanoma) was 23.3 µM and 16.9 µM and the TGI (TK-10 renal) was 24.3 µM. For the same molecule, the GI50 (COLO 205 colon) was 3.22 µM, the TGI (COLO 205 colon) was 14.1 µM and 14.7 µM and the TGI (IGROV1 ovarian) was 15.5 µM and 18.5 µM. The GI50 (HOP-62 NSCLC) was 5.71 µM, the TGI (HOP-62 NSCLC) was 27.8 µM and 22.9 µM and the TGI (SK-OV-3 ovarian) was 10.5 µM. For the same molecule, the TGI (EKVX NSCLC) was 15.5 µM and 13.5 µM, the GI50 (DMS 114 small cell lung) was 2.79 µM and the TGI (DMS 114 small cell lung) was 12.8 µM and 10.2 µM. The GI50 (OVCAR-8 ovarian) was 1.99 µM, the TGI (OVCAR-8 ovarian) was 18.9 µM and 4.92 µM and the TGI (LOX IMVI melanoma) was 12.2 µM. The TGI (SNB-75 CNS) was 25.8 µM and 32 µM, the GI50 (786-0 renal) was 5.63 µM and the TGI (786-0 renal) was 26.1 µM and 19.6 µM. For the same molecule, the TGI (MALME-3M melanoma) was 19.4 µM, the TGI (MOLT-4 leukemia) was 37.2 µM and the outcome (MOLT-4 leukemia) was “inactive”. The GI50 (HOP-92 NSCLC) was 10.8 µM, the TGI (HOP-92 NSCLC) was 12.3 µM and 28.7 µM and the GI50 (SF-539 CNS) was 8.44 µM. The TGI (SF-539 CNS) was 21.3 µM and 21.8 µM, the GI50 (SNB-19 CNS) was 7.87 µM and the TGI (SNB-19 CNS) was 24.1 µM and 21.3 µM. For the same molecule, the TGI (U251 CNS) was 20 µM and 20.6 µM, the GI50 (A549 NSCLC) was 2.25 µM and the TGI (A549 NSCLC) was 11 µM and 5.57 µM. For the same molecule, the GI50 (ACHN renal) was 3.84 µM, the TGI (ACHN renal) was 15.8 µM and 13.8 µM and the GI50 (SW-620 colon) was 1.86 µM. For the same molecule, the TGI (SW-620 colon) was 18 µM and 3.68 µM, the TGI (DLD-1 colon) was 20.1 µM and 19.1 µM and the GI50 (NCI-H23 lung) was 6.51 µM. The TGI (NCI-H23 lung) was 17.3 µM and 19.8 µM, the GI50 (HT29 colon) was 2.84 µM and the TGI (HT29 colon) was 15.6 µM and 8.47 µM. For the same molecule, the TGI (DMS 273 small cell lung) was 3.89 µM, the GI50 (RXF 393 renal) was 4.61 µM and the TGI (RXF 393 renal) was 3.5 µM and 17.9 µM. For the same molecule, the GI50 (SF-295 CNS) was 13 µM, the TGI (SF-295 CNS) was 10.4 µM and 26.1 µM and the GI50 (NCI-H522 lung) was 1.8 µM. The TGI (NCI-H522 lung) was 14.2 µM and 3.98 µM, the GI50 (M14 melanoma) was 2.65 µM and the TGI (M14 melanoma) was 25.1 µM and 9.47 µM. The TGI (HOP-18 NSCLC) was 10.7 µM and 13.9 µM, the TGI (SNB-78 CNS) was 25.3 µM and 30.5 µM and the GI50 (M19-MEL melanoma) was 5.4 µM. For the same molecule, the TGI (M19-MEL melanoma) was 19.6 µM and 18.6 µM, the GI50 (NCI-H460 lung) was 2.81 µM and the TGI (NCI-H460 lung) was 11 µM and 9.94 µM. For the same molecule, the GI50 (UACC-257 melanoma) was 4.25 µM, the TGI (UACC-257 melanoma) was 11.8 µM and 14.6 µM and the outcome (SR leukemia) was “inactive”. For the same molecule, the GI50 (SK-MEL-5 melanoma) was 2.39 µM, the TGI (SK-MEL-5 melanoma) was 16.6 µM and 6.5 µM and the TGI (HL-60(TB) leukemia) was 7.31 µM. For the same molecule, the TGI (NCI-H226 lung) was 6.86 µM, the TGI (SK-MEL-28 melanoma) was 27.6 µM and 27.5 µM and the GI50 (OVCAR-4 ovarian) was 2.62 µM. The TGI (OVCAR-4 ovarian) was 20.4 µM and 15 µM, the TGI (KM20L2 colon) was 4.81 µM and the TGI (CAKI-1 renal) was 19.5 µM and 18.5 µM. The GI50 (XF 498 CNS) was 3.26 µM, the TGI (XF 498 CNS) was 30.5 µM and 17.1 µM and the GI50 (OVCAR-5 ovarian) was 2.54 µM. The TGI (OVCAR-5 ovarian) was 10.2 µM and 8.81 µM, the GI50 (HCC-2998 colon) was 1.85 µM and the TGI (HCC-2998 colon) was 13.7 µM and 3.97 µM. For the same molecule, the TGI (A498 renal) was 29 µM, the GI50 (K-562 leukemia) was 3.17 µM and the GI50 (UACC-62 melanoma) was 1.63 µM. For the same molecule, the TGI (UACC-62 melanoma) was 4.39 µM and 3.3 µM, the TGI (RPMI-8226 leukemia) was 26.6 µM and the outcome (RPMI-8226 leukemia) was “inactive”. For the same molecule, the GI50 (SN12C renal) was 2.21 µM, the TGI (SN12C renal) was 19.4 µM and 5.58 µM and the GI50 (SF-268 CNS) was 10.2 µM. The TGI (SF-268 CNS) was 26 µM and 27.4 µM, the GI50 (HCT-15 colon) was 2.57 µM and the TGI (HCT-15 colon) was 19.4 µM and 6.72 µM. The GI50 (KM12 colon) was 4.01 µM, the TGI (KM12 colon) was 21.7 µM and 16 µM and the GI50 (UO-31 renal) was 2.36 µM. The TGI (UO-31 renal) was 22.5 µM and 7.44 µM, the GI50 (CCRF-CEM leukemia) was 1.37 µM and the TGI (CCRF-CEM leukemia) was 13.7 µM. The GI50 (HCT-116 colon) was 1.76 µM, the TGI (HCT-116 colon) was 13.8 µM and 3.36 µM and the TGI (OVCAR-3 ovarian) was 14 µM.
